The record followed here is ChEMBL document CHEMBL5465560, “Selectivity Literature for EUbOPEN Chemogenomic Library” (2024).

Experiment [1] concerns the target Mitogen-activated protein kinase 4 (Homo sapiens) (UniProt P31152). The experiment in a line: Selectivity interaction (KinomeScan (DiscoverX)) EUB0000607a MAPK4. Particulars: at 10 µM.
Experiment [2] addresses T1, Tyrosine-protein kinase JAK3 (Homo sapiens) (UniProt P52333).
T1 sequence (whole entry): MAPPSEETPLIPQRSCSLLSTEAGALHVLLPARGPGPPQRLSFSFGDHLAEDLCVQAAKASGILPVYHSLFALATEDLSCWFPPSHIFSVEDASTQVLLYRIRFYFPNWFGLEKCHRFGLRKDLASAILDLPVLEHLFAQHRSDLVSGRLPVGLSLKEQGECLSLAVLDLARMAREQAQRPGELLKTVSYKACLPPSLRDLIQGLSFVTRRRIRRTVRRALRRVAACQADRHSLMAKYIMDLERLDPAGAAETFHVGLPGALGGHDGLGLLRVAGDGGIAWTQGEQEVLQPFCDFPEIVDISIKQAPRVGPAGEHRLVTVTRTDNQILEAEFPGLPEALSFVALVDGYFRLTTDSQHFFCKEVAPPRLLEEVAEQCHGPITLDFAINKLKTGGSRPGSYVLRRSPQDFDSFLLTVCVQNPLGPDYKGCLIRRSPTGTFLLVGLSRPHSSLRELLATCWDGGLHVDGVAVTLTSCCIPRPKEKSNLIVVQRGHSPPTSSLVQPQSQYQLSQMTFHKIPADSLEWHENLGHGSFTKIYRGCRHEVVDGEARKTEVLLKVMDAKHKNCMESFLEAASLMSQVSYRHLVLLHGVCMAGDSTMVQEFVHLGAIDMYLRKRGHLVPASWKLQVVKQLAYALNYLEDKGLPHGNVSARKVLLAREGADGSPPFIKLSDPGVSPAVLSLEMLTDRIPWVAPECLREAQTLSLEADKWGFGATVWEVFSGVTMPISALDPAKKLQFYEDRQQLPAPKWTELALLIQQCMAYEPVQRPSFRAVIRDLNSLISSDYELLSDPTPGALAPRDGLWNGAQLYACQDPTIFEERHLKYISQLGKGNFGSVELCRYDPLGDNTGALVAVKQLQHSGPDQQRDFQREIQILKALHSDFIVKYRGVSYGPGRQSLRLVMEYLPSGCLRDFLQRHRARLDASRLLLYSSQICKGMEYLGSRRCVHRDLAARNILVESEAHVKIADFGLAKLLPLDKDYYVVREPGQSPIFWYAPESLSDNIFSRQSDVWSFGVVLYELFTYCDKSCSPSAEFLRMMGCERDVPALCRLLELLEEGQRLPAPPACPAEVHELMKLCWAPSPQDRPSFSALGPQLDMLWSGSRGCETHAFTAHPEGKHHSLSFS
The experiment in a line: Selectivity interaction (KinomeScan (DiscoverX)) EUB0000607a JAK3. Particulars: at 10 µM.

Experiment [3] has as its target Cyclin-dependent kinase-like 3 (Homo sapiens) (UniProt Q8IVW4). The experiment in a line: Selectivity interaction (KinomeScan (DiscoverX)) EUB0000666a CDKL3. To be noted: at 10 µM.
Experiment [4] concerns the target T2, Mitogen-activated protein kinase 13 (Homo sapiens) (UniProt O15264).
T2 sequence (whole entry): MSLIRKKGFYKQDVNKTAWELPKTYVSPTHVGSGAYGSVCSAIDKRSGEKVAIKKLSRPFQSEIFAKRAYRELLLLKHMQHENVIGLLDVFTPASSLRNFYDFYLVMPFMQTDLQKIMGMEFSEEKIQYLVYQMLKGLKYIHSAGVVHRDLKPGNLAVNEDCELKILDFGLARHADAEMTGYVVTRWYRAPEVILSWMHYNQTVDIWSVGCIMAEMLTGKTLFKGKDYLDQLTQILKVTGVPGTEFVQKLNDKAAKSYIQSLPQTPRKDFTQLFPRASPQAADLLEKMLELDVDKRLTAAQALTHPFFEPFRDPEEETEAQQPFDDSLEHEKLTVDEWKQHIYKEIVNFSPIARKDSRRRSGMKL
The experiment in a line: Selectivity interaction (KinomeScan (DiscoverX)) EUB0001079a MAPK13. To be noted: at 1 µM.

Experiment [5] has as its target Mitogen-activated protein kinase 8 (Homo sapiens, UniProt P45983). The experiment in a line: Selectivity interaction (ActivX KiNativ screen (ex vivo kinase selectivity in human PBMCs)) EUB0001619a MAPK8. Type of experiment: cell-based. To be noted: PBMC, at 1 µM.
Experiment [6] concerns the target Tyrosine-protein kinase Lyn (Homo sapiens, UniProt P07948). Kind of experiment: Selectivity interaction (Kinase panel (Invitrogen)) EUB0000639a LYN. To be noted: at 200 nM.
Experiment [7] concerns Epidermal growth factor receptor (Homo sapiens), P00533 [UNDEFINED MUTATION]. The experiment in a line: Selectivity interaction (KinomeScan (DiscoverX)) EUB0001049a EGFR. To be noted: at 1 µM.
Experiment [8] addresses Mitogen-activated protein kinase kinase kinase kinase 5 (Homo sapiens) (UniProt Q9Y4K4). Kind of experiment: Selectivity interaction (ProQinase) EUB0000171b MAP4K5.
Experiment [9] concerns the target T3, Mitogen-activated protein kinase kinase kinase 2 (Homo sapiens) (UniProt Q9Y2U5).
T3 sequence (whole entry): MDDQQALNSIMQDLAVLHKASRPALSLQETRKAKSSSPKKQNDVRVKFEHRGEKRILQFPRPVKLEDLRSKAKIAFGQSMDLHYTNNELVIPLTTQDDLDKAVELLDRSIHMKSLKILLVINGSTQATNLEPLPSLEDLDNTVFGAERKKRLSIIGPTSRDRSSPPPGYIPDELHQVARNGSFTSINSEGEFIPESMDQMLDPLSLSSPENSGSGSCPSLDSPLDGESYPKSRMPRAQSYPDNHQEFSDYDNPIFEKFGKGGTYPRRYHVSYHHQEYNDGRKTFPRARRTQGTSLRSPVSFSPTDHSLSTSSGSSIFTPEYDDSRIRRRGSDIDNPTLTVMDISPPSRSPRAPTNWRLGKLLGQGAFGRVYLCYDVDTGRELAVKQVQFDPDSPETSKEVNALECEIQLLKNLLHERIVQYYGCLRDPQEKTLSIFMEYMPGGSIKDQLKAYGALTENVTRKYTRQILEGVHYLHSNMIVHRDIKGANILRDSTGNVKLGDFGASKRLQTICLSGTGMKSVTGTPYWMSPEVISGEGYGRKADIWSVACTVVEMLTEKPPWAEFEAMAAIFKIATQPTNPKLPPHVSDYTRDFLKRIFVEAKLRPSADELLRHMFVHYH
Kind of experiment: Selectivity interaction (KinomeScan (DiscoverX)) EUB0000092b MAP3K2. To be noted: at 10 µM.

Experiment [10] has as its target Calcium/calmodulin-dependent protein kinase type 1D (Homo sapiens) (UniProt Q8IU85). Kind of experiment: Selectivity interaction (KinomeScan (DiscoverX)) EUB0000092b CAMK1D. To be noted: at 10 µM.
For experiment [11], the target named is Tyrosine-protein kinase ABL1 (Homo sapiens, UniProt P00519). Kind of experiment: Selectivity interaction (KinomeScan (DiscoverX)) EUB0000618a ABL1. Particulars: at 10 µM.
Experiment [12] deals with Tyrosine-protein kinase Lck (Homo sapiens, UniProt P06239). Kind of experiment: Selectivity interaction (Upstate Kinase Profiler service (Millipore)) EUB0000056c LCK. Particulars: at 1 µM.
Experiment [13] has as its target Microtubule-associated serine/threonine-protein kinase 1 (Homo sapiens) (UniProt Q9Y2H9). The experiment in a line: Selectivity interaction (KinomeScan (DiscoverX)) EUB0000595a MAST1. Particulars: at 10 µM.

Chain of Mitogen-activated protein kinase kinase kinase kinase 5 (Homo sapiens) (Q9Y4K4 whole entry, looked up): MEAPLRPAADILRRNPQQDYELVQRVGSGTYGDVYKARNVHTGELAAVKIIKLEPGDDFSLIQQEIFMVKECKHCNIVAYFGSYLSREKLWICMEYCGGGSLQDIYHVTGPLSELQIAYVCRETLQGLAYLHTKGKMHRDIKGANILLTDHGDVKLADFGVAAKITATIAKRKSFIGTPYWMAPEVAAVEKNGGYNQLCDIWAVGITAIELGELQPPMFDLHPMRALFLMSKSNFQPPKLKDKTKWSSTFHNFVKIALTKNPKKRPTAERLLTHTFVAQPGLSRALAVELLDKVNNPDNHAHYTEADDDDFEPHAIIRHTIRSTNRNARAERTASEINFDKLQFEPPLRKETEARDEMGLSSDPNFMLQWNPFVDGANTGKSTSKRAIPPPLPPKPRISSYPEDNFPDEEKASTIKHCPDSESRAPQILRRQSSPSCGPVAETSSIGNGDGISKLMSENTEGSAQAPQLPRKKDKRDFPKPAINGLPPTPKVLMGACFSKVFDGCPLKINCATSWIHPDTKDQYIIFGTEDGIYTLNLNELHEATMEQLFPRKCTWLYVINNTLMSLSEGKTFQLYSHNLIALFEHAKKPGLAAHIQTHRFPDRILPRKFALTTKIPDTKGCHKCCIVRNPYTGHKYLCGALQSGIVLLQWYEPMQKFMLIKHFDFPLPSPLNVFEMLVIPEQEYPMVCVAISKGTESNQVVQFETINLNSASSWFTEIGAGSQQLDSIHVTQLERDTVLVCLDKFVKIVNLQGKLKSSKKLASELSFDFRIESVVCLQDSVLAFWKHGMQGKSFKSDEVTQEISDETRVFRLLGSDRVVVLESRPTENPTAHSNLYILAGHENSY
Chain of Mitogen-activated protein kinase 4 (Homo sapiens) (P31152 whole entry): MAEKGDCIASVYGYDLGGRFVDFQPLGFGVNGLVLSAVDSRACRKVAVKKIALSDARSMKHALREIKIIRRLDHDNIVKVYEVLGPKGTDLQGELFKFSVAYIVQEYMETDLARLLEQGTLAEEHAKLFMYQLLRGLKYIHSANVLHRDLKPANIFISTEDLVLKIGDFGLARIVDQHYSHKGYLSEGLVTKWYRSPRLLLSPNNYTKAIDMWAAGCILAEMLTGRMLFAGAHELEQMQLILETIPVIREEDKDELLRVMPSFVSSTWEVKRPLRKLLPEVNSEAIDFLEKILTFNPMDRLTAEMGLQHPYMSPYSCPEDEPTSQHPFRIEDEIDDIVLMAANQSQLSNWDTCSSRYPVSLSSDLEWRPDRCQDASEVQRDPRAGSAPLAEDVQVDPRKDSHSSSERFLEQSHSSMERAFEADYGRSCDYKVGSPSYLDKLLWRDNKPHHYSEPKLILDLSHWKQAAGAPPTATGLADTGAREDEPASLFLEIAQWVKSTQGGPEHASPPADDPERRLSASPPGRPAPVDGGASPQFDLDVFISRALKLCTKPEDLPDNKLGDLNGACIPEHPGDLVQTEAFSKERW
Chain of Tyrosine-protein kinase Lck (P06239 2-509 limits assumed): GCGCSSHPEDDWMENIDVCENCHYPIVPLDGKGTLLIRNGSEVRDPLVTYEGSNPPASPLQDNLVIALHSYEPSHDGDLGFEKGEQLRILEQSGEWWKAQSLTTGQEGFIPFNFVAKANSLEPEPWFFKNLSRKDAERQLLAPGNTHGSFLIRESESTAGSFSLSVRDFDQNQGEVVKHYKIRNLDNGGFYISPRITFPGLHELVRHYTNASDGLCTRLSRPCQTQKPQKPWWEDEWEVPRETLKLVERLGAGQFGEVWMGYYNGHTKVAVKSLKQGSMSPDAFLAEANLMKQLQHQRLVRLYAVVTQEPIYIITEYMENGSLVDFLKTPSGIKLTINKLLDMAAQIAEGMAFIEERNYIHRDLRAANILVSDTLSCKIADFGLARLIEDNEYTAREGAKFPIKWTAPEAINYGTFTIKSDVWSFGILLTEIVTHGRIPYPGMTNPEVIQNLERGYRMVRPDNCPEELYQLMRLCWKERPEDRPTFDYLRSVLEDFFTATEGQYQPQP
Chain of Tyrosine-protein kinase Lyn (P07948 2-512 limits assumed): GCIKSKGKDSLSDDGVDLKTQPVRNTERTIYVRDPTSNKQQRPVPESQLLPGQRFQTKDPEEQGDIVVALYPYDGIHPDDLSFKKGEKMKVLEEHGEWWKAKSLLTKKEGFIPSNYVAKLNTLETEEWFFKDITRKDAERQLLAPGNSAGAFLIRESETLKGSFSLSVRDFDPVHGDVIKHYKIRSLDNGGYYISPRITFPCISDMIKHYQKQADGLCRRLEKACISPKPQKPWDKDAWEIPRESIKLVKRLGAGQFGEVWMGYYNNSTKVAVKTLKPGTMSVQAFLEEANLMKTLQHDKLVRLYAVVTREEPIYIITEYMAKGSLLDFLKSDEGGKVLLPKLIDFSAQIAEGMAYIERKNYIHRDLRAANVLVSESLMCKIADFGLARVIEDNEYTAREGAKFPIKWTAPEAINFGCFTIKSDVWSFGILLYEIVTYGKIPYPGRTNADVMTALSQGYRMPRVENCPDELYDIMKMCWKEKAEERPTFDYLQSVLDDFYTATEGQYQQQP
Chain of Epidermal growth factor receptor (Homo sapiens), P00533 [UNDEFINED MUTATION] (P00533 whole entry, looked up, change not shown): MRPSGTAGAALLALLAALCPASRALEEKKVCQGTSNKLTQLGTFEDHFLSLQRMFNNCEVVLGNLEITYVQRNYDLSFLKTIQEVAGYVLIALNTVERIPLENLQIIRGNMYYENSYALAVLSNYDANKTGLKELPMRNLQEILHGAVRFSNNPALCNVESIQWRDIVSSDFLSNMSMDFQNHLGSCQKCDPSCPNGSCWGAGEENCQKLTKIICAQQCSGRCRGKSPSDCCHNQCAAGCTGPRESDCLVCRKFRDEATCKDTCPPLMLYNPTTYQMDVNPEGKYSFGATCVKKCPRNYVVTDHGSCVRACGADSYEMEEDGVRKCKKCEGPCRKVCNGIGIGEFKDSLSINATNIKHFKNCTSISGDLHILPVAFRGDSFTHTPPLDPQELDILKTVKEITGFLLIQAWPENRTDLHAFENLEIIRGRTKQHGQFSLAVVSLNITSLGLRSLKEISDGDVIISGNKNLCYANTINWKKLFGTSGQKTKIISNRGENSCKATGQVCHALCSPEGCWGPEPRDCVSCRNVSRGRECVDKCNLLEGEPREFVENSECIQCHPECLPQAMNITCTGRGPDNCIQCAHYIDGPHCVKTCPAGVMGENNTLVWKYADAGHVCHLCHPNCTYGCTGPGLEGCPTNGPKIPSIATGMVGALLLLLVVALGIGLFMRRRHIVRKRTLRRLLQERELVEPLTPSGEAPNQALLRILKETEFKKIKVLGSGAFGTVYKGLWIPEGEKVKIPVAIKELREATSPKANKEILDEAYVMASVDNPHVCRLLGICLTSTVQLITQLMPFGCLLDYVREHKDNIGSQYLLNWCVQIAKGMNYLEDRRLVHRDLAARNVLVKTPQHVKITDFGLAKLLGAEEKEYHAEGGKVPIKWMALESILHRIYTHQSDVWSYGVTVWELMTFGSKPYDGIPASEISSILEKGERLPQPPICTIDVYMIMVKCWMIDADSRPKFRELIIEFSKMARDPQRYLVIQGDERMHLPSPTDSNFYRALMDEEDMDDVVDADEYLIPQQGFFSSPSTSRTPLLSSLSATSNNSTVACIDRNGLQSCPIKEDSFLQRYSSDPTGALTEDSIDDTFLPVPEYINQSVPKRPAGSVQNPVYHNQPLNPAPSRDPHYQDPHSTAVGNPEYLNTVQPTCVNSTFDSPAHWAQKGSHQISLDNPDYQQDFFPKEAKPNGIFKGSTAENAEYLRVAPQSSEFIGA
Chain of Calcium/calmodulin-dependent protein kinase type 1D (Homo sapiens) (Q8IU85 whole entry, looked up): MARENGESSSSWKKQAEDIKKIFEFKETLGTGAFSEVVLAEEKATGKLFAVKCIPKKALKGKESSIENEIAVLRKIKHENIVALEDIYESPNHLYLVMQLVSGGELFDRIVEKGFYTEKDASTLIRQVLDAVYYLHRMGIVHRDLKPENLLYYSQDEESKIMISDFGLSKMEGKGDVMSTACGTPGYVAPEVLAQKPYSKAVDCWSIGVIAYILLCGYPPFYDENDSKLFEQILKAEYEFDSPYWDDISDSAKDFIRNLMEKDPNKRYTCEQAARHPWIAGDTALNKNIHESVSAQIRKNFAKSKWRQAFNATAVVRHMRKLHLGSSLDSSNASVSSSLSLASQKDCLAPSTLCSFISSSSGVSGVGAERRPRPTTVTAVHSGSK
Chain of Mitogen-activated protein kinase 8 (P45983 whole entry): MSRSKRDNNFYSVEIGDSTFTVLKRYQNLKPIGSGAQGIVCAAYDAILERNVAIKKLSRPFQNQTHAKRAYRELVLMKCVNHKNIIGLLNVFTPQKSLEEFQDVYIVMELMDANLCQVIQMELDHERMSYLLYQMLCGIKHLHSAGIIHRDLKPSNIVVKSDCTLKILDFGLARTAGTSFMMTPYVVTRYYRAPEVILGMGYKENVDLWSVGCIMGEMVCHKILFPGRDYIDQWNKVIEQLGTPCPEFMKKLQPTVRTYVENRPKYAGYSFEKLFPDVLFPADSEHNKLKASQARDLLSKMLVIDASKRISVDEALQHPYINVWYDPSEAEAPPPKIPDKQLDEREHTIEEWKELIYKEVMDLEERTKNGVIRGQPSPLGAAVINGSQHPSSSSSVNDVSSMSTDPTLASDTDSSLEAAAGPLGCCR

As to `CNC(=O)Nc1ccc(-c2nc(N3CC4CCC(C3)O4)c3cnn(C4CCC5(CC4)OCCO5)c3n2)cc1`, the % of control was determined as 100% in experiment [1] and 90% in [2].
For the compound `O=C(NOC[C@H](O)CO)c1ccc(F)c(F)c1Nc1ccc(I)cc1F`, in [3], the % of control worked out at 98%.
In experiment [4], `Nc1cnc(N2CCc3cc(S(=O)(=O)Nc4c(F)cc(Cl)cc4F)cc(N4CCCC4=O)c32)nc1` [TP-020n] returned a % of control of 100%.
Take `N#Cc1cccc(-c2c[nH]c3ncnc(N4CCOCC4)c23)c1`: the % of inhibition in experiment [5] worked out at 5%.
Regarding `CC[C@@H]1[C@H](F)C(=O)N[C@@H]1COc1nccc2cc(C(N)=O)c(OC)cc12` [ZIMLOVISERTIB], in [6], the % of inhibition stood at 14.9%.
Regarding `COc1cc(Nc2nc(C)cc(-c3cnn4nc(OC)ccc34)n2)cc(C(F)(F)F)c1`, the % of control in [7] was 53%.
In the case of `C=CC(=O)Nc1cccc(C(=O)Nc2ccc(Nc3cc(-c4[nH]c(SC)nc4C)ccn3)cc2)c1`, the values for the % of control in experiment [8] (at 1 µM) and in experiment [8] (at 5 µM) were 71% and 49%, respectively.
In the case of `CCC(=O)N1CCN(c2ccc(-n3c(=O)ccc4cnc5ccc(-c6cnc7ccccc7c6)cc5c43)cc2C(F)(F)F)CC1`, the % of control in [9] was 62%; in experiment [10], 88%.
On to `O[C@H]1CC[C@H](Nc2ncc3nc(Nc4c(F)cc(F)cc4F)n([C@H]4CCOC4)c3n2)CC1`, for which the % of control in [11] is 34%.
For the compound `Cc1ccc(-c2ccc3c(ccc4sc5c(c43)NC[C@@H](C)NC5=O)n2)cn1`, in [12], the % of inhibition is -3%.
Compound `COCC(=O)NC/C=C/c1ccc2ncnc(Nc3ccc(Oc4ccc(C)nc4)c(C)c3)c2c1` [CP-724714] registered a % of control in [13] of 100%.
